Laboratory results: patent EP2386300A1, “Use of dronedarone for the preparation of a medicament for use in the prevention of cardiovascular hospitalization or of mortality in patients having a first recurrence of atrial fibrillation or atrial flutter” (SANOFI, priority 2010, dated 2011)
Counter-ions that a name gives are not always drawn.

Tested on: patients having a history of atrial fibrillation or atrial flutter
Assay: Prospective, multinational, multicentre, double-blind, placebo-controlled clinical study (ATHENA); analysis restarting the clock at first AF/AFL recurrence
Format: in vivo
Description: More particularly, the effects of dronedarone compared with placebo on cardiovascular (CV) end points were evaluated by restarting the clock at the time of first atrial fibrillation or atrial flutter recurrence detected in a scheduled ECG or requiring cardioversion.
The patients had to have a history of atrial fibrillation or flutter and/or could be in normal sinus rhythm or in atrial fibrillation or flutter at inclusion.
The patient recruitment was carried out by taking into account the following inclusion criteria:
• 1) One of the following risk factors had to be present: • age equal to or greater than 70 years, • hypertension (taking antihypertensives of at least two different classes), • diabetes, • history of cerebral stroke (transient ischemic event or completed cerebral stroke) or of systemic embolism, • left atrial diameter greater than or equal to 50 mm measured by echocardiography, • left ventricular ejection fraction less than 40%, measured by two-dimensional echography; or • age equal to or above 70, or even above 75, possibly combined with at least one of the risk factors below: • o hypertension (taking antihypertensives of at least two different classes), • o diabetes, • o history of cerebral stroke (transient ischemic event or completed cerebral stroke) or of systemic embolism, • o left atrial diameter greater than or equal to 50 mm measured by echocardiography, • o left ventricular ejection fraction less than 40%, measured by two-dimensional echography; • 2) availability of an electrocardiogram carried out during the past 6 months in order to document the presence or the history of atrial fibrillation or flutter; • 3) availability of an electrocardiogram carried out during the past 6 months in order to document the presence or absence of normal sinus rhythm.
• Patients in permanent atrial fibrillation • Patients in unstable hemodynamic condition such as acute pulmonary edema within 12 hours prior to start of study medication; cardiogenic shock; treatment with IV pressor agents; patients on respirator; congestive heart failure of stage NYHA IV within the last 4 weeks; uncorrected, hemodynamically significant primary obstructive valvular disease; hemodynamically significant obstructive cardomyopathy; a cardiac operation or revascularization procedure within 4 weeks preceding randomization • Planned major non-cardiac or cardiac surgery or procedures including surgery for valvular heart disease, coronary artery bypass graft (CABG), percutaneous coronary intervention (PCI), or on urgent cardiac transplantation list • Acute myocarditis or constrictive pericarditis • Bradycardia < 50 bpm and/or PR-interval ≥ 0.28 sec on the last 12-lead ECG. • Significant sinus node disease (documented pause of 3 seconds or more) or 2nd or 3rd degree atrioventricular block (AV-block) unless treated with a pacemaker.
• Plasma potassium < 3.5 mmol/I (as anti-arrhythmic drugs can be arrhythmogenic in patients with hypokalemia, this must be corrected prior to randomization. • A calculated GFR at baseline < 10 ml/min using the Cockroft Gault formula (GFR [ml/min] = (140 - AGE [years] * WEIGHT [kilograms] * CONSTANT / CREATININE [µmol/L], where CONSTANT is 1 for men and 0.85 for women )^i
Treatment was initiated using tablets containing either the placebo or an amount of dronedarone hydrochloride corresponding to 400 mg of dronedarone at a rate of twice a day with the morning and evening meal and more specifically at a rate of one tablet in the morning during or shortly after breakfast and one tablet in the evening during or shortly after dinner.
The anticipated duration of the treatment was variable according to the time at which each patient was included in the study, and could range from a minimum of 12 months for the last patient included up to a maximum corresponding to the entire duration of the study (12 months + duration of inclusion), i.e. approximately 30 months for the first patients included.

[1] = 1 - relative risk, versus placebo, after first AF/AFL recurrence

| SMILES | reduction in cardiovascular hospitalizations [1] | reduction in cardiovascular hospitalizations or deaths [1] | reduction in cardiovascular mortality [1] | reduction of death [1] | cardiovascular deaths (673 treated patients with a first AF/AFL recurrence, placebo 35) | deaths (mortality from any cause) (673 treated patients with a first AF/AFL recurrence, placebo 51 deaths) | events, cardiovascular hospitalizations (673 treated patients with a first AF/AFL recurrence, placebo 288 events) | events, cardiovascular hospitalizations or mortality (principal judgement criterion) (673 treated patients with a first AF/AFL recurrence, placebo 306 events) | relative risk, cardiovascular hospitalizations or deaths (versus placebo, Cox model, after first AF/AFL recurrence, p = 0.0025) | relative risk, cardiovascular hospitalizations (versus placebo, Cox model, after first AF/AFL recurrence, p = 0.0048) | relative risk, death from any cause (versus placebo, Cox model, after first AF/AFL recurrence, p = 0.018) | relative risk, cardiovascular mortality (versus placebo, Cox model, after first AF/AFL recurrence, p = 0.0342) | primary composite end point occurred in patients (after a first AF recurrence, CV hospitalization or all-cause mortality, placebo 306) | primary composite end point occurred in patients (%) (after a first AF recurrence, placebo 38.6%) | patients hospitalized for worsening heart failure (including pulmonary edema or dyspnea of cardiac origin) (after first AF/AFL recurrence, placebo 5.0%) | patients hospitalized for AF (after first AF/AFL recurrence, placebo 21.2%) | total time spent in hospital (all patients with a first AF/AFL recurrence, placebo 1789 nights, P < 0.01) | percentage of hospitalization time spent in intensive care units (compared with the placebo group, P = 0.01, Figure 3) | first AF recurrence (percentage of patients with a first AF recurrence, placebo 34.1%) |
| --- | --- | --- | --- | --- | --- | --- | --- | --- | --- | --- | --- | --- | --- | --- | --- | --- | --- | --- | --- |
| CCCCc1oc2ccc(NS(C)(=O)=O)cc2c1C(=O)c1ccc(OCCCN(CCCC)CCCC)cc1 [dronedarone hydrochloride] | 23% | 24% | 47% | 44% | 15 cardiovascular deaths | 23 deaths | 195 events | 205 events | 0.76 | 0.77 | 0.56 | 0.53 | – | – | – | – | – | – | – |
| CCCCc1oc2ccc(NS(C)(=O)=O)cc2c1C(=O)c1ccc(OCCCN(CCCC)CCCC)cc1 [dronedarone, 2-n-Butyl-3-[4-(3-di-n-butylaminopropoxy)benzoyl]-5-methylsulphonamidobenzofuran] | – | – | – | – | – | – | – | – | – | – | – | – | 205 patients | 30.5% | 3.6% | 15.8% | 1273 nights | lower | 29.3% |
